Laboratory results taken from patent US20230072421A1, “TARGETED RADIOPHARMACEUTICALS FOR THE DIAGNOSIS AND TREATMENT OF PROSTATE CANCER” (Bayer AS, priority 2019, published 2023).

Target: T1, PSMA-expressing LNCaP cells (Homo sapiens, UniProt Q04609)
T1 construct: PSMA-expressing LNCaP cells; endogenous in cells; host or cells: LNCaP
Assay: Binding competition assay against 3H-PSMA-617 on LNCaP cells
Experimental: Cells were incubated at 37° C. and 5% CO2 over night. […] After addition of the compounds in growth media the cells were swiveled slightly on a shaker mixing for 10 min followed by incubation for 2 h at 37° C., 5% C02. Following the incubation time the supernatant was removed by pipetting and cells were washed twice with ice cold PBS (total of 800 μl). Cells were lysed in 500 μl of 0.3M NaOH (PanReac AppliChem ITW Reagents) by vigorous shaking for 15 min and the cell lysated pipetted into scintillator tubes (S207-[…]® Scintillation Vials 6.5 ml #S207, Simport). In the following the wells were washed with 500 μl PBS and the washing PBS added to the corresponding samples in the sincitallator tubes. To each sample in the scintillator tubes 4 mL of Ultima Gold liquid scintillation cocktail (Sigma-Aldrich #L8286) was added and the samples let stand for at least 30 min. Thereafter radioactivity was counted in a Tri-Carb Liquid Scinzillation Analyzer (Perkin Elmer).

[1] = LNCaP cells, 10 nM 3H-PSMA-617, competing non-radiolabeled compound 10 nM, 2 h at 37° C., triplicates
[2] = LNCaP cells, 10 nM 3H-PSMA-617, competing non-radiolabeled compound 100 nM, 2 h at 37° C., triplicates

T1 sequence (Q04609 whole entry): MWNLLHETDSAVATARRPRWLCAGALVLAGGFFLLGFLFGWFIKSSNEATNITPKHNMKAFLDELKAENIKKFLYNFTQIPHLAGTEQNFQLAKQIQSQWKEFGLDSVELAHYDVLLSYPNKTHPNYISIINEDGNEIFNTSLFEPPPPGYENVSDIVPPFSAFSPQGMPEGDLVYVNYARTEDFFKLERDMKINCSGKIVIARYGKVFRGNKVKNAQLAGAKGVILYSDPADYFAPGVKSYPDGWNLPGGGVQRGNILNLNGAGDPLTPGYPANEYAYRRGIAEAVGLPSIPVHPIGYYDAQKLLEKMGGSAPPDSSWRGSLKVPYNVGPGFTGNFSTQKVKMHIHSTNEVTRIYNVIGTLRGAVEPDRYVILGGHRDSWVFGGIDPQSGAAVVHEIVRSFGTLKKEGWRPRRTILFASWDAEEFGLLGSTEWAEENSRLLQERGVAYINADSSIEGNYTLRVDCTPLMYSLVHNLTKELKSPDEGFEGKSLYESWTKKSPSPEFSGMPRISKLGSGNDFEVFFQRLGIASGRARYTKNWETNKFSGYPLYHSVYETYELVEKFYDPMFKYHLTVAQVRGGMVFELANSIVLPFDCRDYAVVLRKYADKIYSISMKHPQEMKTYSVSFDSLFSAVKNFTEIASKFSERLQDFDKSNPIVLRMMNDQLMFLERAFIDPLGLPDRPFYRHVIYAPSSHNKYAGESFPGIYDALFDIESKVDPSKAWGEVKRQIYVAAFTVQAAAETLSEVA

SMILES	remaining activity at 0.01 µM [1] [%]	remaining activity at 0.1 µM [2] [%]	% remaining 3H-PSMA-617 @ 10 nM (mean) [1] [%]	% remaining 3H-PSMA-617 @ 100 nM (mean) [2] [%]	competition against 3H-PSMA-617 on PSMA-expressing LNCaP cells (in words) (comparison between examples)
O=C(O)CC[C@H](NC(=O)N[C@@H](CCCCNC(=O)[C@H](Cc1ccc2ccccc2c1)NC(=O)[C@H]1CC[C@H](CNC(=O)C[N+]23CC[N+]45CC[N+]67CC[N+]8(CC2)CC(=O)[O][Th]3486([O]C(=O)C5)[O]C(=O)C7)CC1)C(=O)O)C(=O)O (some centres unmarked) [Example 1-B-232Th, {3-[(naphthalen-2-yl)methyl]-1,4,12-trioxo-1-{4-[(2-{4,7,10-tris[(carboxy-kappaO)methyl]-1,4,7,10-tetraazacyclododecan-1-yl-kappa^4N^1,N^4,N^7,N^10}acetamido)methyl]cyclohexyl}-2,5,11,13-tetraazahexadecane-10,14,16-tricarboxylato(4−)}thorium(3+)]			71	12	
O=C(O)CC[C@H](NC(=O)N[C@@H](CCCCNC(=O)[C@H](Cc1ccc2ccccc2c1)NC(=O)c1cccc(CNC(=O)CN2CCN(CC(=O)O)CCN(CC(=O)O)CCN(CC(=O)O)CC2)c1)C(=O)O)C(=O)O [Example 27-B, (3S,10S,14S)-3-[(naphthalen-2-yl)methyl]-1,4,12-trioxo-1-[3-({2-[4,7,10-tris(carboxymethyl)-1,4,7,10-tetraazacyclododecan-1-yl]acetamido}methyl)phenyl]-2,5,11,13-tetraazahexadecane-10,14,16-tricarboxylic acid]	54	6			
O=C(O)CC[C@H](NC(=O)N[C@@H](CCCCNC(=O)[C@@H](Cc1cnc2ccccc2c1)NC(=O)c1ccc(CNC(=O)CN2CCN(CC(=O)O)CCN(CC(=O)O)CCN(CC(=O)O)CC2)cn1)C(=O)O)C(=O)O [Example 32-B, N^6-{3-(quinolin-3-yl)-N-[5-({2-[4,7,10-tris(carboxymethyl)-1,4,7,10-tetraazacyclododecan-1-yl]acetamido}methyl)pyridine-2-carbonyl]-D-alanyl}-N^2-{[(1S)-1,3-dicarboxypropyl]carbamoyl}-L-lysine]	88	35			
O=C(O)CC[C@@H](NC(=O)N[C@@H](CCCCNC(=O)[C@H](Cc1ccc2ccccc2c1)NC(=O)[C@H]1CC[C@H](CNC(=O)CN2CCN(CC(=O)O)CCN(CC(=O)O)CCN(CC(=O)O)CC2)CC1)C(=O)O)C(=O)O [Example 1-B-D, (3S,10S,14R)-3-[(naphthalen-2-yl)methyl]-1,4,12-trioxo-1-[(1r,4S)-4-({2-[4,7,10-tris(carboxymethyl)-1,4,7,10-tetraazacyclododecan-1-yl]acetamido}methyl)cyclohexyl]-2,5,11,13-tetraazahexadecane-10,14,16-tricarboxylic acid]	80	78			
O=C(O)CC[C@H](NC(=O)N[C@@H](CCCCNC(=O)[C@H](Cc1ccc2ccccc2c1)NC(=O)NCC1CCNCC1)C(=O)O)C(=O)O [Example 30-A, (5S,12S,16S)-5-[(naphthalen-2-yl)methyl]-3,6,14-trioxo-1-(piperidin-4-yl)-2,4,7,13,15-pentaazaoctadecane-12,16,18-tricarboxylic acid]	136	96			
O=C(O)CC[C@H](NC(=O)N[C@@H](CCCCNC(=O)[C@H](Cc1ccc2ccccc2n1)NC(=O)c1ccc(CNC(=O)CN2CCN(CC(=O)O)CCN(CC(=O)O)CCN(CC(=O)O)CC2)cn1)C(=O)O)C(=O)O [Example 34-B, N^6-{3-(quinolin-2-yl)-N-[5-({2-[4,7,10-tris(carboxymethyl)-1,4,7,10-tetraazacyclododecan-1-yl]acetamido}methyl)pyridine-2-carbonyl]-L-alanyl}-N^2-{[(1S)-1,3-dicarboxypropyl]carbamoyl}-L-lysine]	43	6			improved competition
CNc1cc2ccccc2cc1C[C@@H](NC(=O)[C@H]1CC[C@H](CNC(=O)CN2CCN(CC(=O)O)CCN(CC(=O)O)CCN(CC(=O)O)CC2)CC1)C(=O)NCCCC[C@H](NC(=O)N[C@@H](CCC(=O)O)C(=O)O)C(=O)O [Example 39-B, (3R,10S,14S)-3-{[3-(methylamino)naphthalen-2-yl]methyl}-1,4,12-trioxo-1-[(1r,4S)-4-({2-[4,7,10-tris(carboxymethyl)-1,4,7,10-tetraazacyclododecan-1-yl]acetamido}methyl)cyclohexyl]-2,5,11,13-tetraazahexadecane-10,14,16-tricarboxylic acid]	81	32			
O=C(O)CC[C@H](NC(=O)N[C@@H](CCCCNC(=O)[C@@H](Cc1ccc2c(c1)CCCO2)NC(=O)[C@H]1CC[C@H](CNC(=O)CN2CCN(CC(=O)O)CCN(CC(=O)O)CCN(CC(=O)O)CC2)CC1)C(=O)O)C(=O)O [Example 38-B, N^6-{3-(3,4-dihydro-2H-1-benzopyran-6-yl)-N-[(1r,4S)-4-({2-[4,7,10-tris(carboxymethyl)-1,4,7,10-tetraazacyclododecan-1-yl]acetamido}methyl)cyclohexane-1-carbonyl]-D-alanyl}-N^2-{[(1S)-1,3-dicarboxypropyl]carbamoyl}-L-lysine]	76	34			
O=C(O)CC[C@H](NC(=O)N[C@@H](CCCCNC(=O)[C@H](Cc1cc2ccccc2cn1)NC(=O)[C@H]1CC[C@H](CNC(=O)CN2CCN(CC(=O)O)CCN(CC(=O)O)CCN(CC(=O)O)CC2)CC1)C(=O)O)C(=O)O [Example 36-B, N^6-{3-(isoquinolin-3-yl)-N-[(1r,4S)-4-({2-[4,7,10-tris(carboxymethyl)-1,4,7,10-tetraazacyclododecan-1-yl]acetamido}methyl)cyclohexane-1-carbonyl]-L-alanyl}-N^2-{[(1S)-1,3-dicarboxypropyl]carbamoyl}-L-lysine]	92	29			

Second part, led by results:

remaining activity at 0.01 µM [1] [%]	remaining activity at 0.1 µM [2] [%]	SMILES	% remaining 3H-PSMA-617 @ 10 nM (mean) [1] [%]	% remaining 3H-PSMA-617 @ 100 nM (mean) [2] [%]	competition against 3H-PSMA-617 on PSMA-expressing LNCaP cells (in words) (comparison between examples)
78	79	NC[C@H]1CC[C@H](C(=O)N[C@@H](Cc2ccc(C3CCC3)cc2)C(=O)NCCCC[C@H](NC(=O)N[C@@H](CCC(=O)O)C(=O)O)C(=O)O)CC1 [Example 18-A, N^6—{N-[(1r,4S)-4-(aminomethyl)cyclohexane-1-carbonyl]-4-cyclobutyl-L-phenylalanyl}-N^2-{[(1S)-1,3-dicarboxypropyl]carbamoyl}-L-lysine]			
73	74	NC[C@H]1CC[C@H](C(=O)N[C@@H](Cc2ccc3ncccc3c2)C(=O)NCCCC[C@H](NC(=O)N[C@@H](CCC(=O)O)C(=O)O)C(=O)O)CC1 [Example 48-A, (3S,10S,14S)-1-[trans-4-(aminomethyl)cyclohexyl]-1,4,12-trioxo-3-[(quinolin-6-yl)methyl]-2,5,11,13-tetraazahexadecane-10,14,16-tricarboxylic acid]			
79	90	NC[C@H]1CC[C@H](C(=O)N[C@@H](Cc2cccc(S(F)(F)(F)(F)F)c2)C(=O)NCCCC[C@H](NC(=O)N[C@@H](CCC(=O)O)C(=O)O)C(=O)O)CC1 [Example 16-A, N^6—{N-[(1r,4S)-4-(aminomethyl)cyclohexane-1-carbonyl]-3-(pentafluoro-lambda^6-sulfanyl)-L-phenylalanyl}-N^2-{[(1S)-1,3-dicarboxypropyl]carbamoyl}-L-lysine]			
85	68	NC[C@H]1CC[C@H](C(=O)N[C@H](Cc2ccc3cnccc3c2)C(=O)NCCCC[C@H](NC(=O)N[C@@H](CCC(=O)O)C(=O)O)C(=O)O)CC1 [Example 44-A, (3R,10S,14S)-1-[(1r,4S)-4-(aminomethyl)cyclohexyl]-3-[(isoquinolin-6-yl)methyl]-1,4,12-trioxo-2,5,11,13-tetraazahexadecane-10,14,16-tricarboxylic acid]			
96	82	NC[C@H]1CC[C@H](C(=O)N[C@@H](Cc2csc3ccccc23)C(=O)NCCCC[C@H](NC(=O)N[C@@H](CCC(=O)O)C(=O)O)C(=O)O)CC1 [Example 43-A, N^6—{N-[(1r,4S)-4-(aminomethyl)cyclohexane-1-carbonyl]-3-(1-benzothiophen-3-yl)-L-alanyl}-N^2-{[(1S)-1,3-dicarboxypropyl]carbamoyl}-L-lysine]			
113	92	NC[C@H]1CC[C@H](CNC(=O)N[C@@H](Cc2ccc3ccccc3c2)C(=O)NCCCC[C@H](NC(=O)N[C@@H](CCC(=O)O)C(=O)O)C(=O)O)CC1 [Example 29-A, (5S,12S,16S)-1-[(1r,4S)-4-(aminomethyl)cyclohexyl]-5-[(naphthalen-2-yl)methyl]-3,6,14-trioxo-2,4,7,13,15-pentaazaoctadecane-12,16,18-tricarboxylic acid]			
66	72	COc1c(C[C@@H](NC(=O)[C@H]2CC[C@H](CN)CC2)C(=O)NCCCC[C@H](NC(=O)N[C@@H](CCC(=O)O)C(=O)O)C(=O)O)ccc2ccccc12 [Example 33-A, (3R,10S,14S)-1-[(1r,4S)-4-(aminomethyl)cyclohexyl]-3-[(1-methoxynaphthalen-2-yl)methyl]-1,4,12-trioxo-2,5,11,13-tetraazahexadecane-10,14,16-tricarboxylic acid]			
106	93	NC[C@H]1CC[C@H](C(=O)N[C@@H](Cc2ccc(F)cc2)C(=O)NCCCC[C@H](NC(=O)N[C@@H](CCC(=O)O)C(=O)O)C(=O)O)CC1 [Example 7-A, N^6—{N-[(1r,4S)-4-(aminomethyl)cyclohexane-1-carbonyl]-4-fluoro-L-phenylalanyl}-N^2-{[(1S)-1,3-dicarboxypropyl]carbamoyl}-L-lysine]			
